Assay results as given in PMC6588349 (eLife, 2019).

How the values were obtained:
[1] = Gramicidin-based fluorescence quench assay for changes of lipid bilayer properties (LUVs); format: physicochemical; details: 1 to 10 µM
Source text: To further probe this, we used a fluorescence quench assay for drug-induced changes of lipid bilayer properties ([Ingólfsson and Andersen, 2010]) (Figure 6—figure supplement 3A; see Materials and methods), in which changes in gramicidin channel function is used as a reporter of membrane modification. […] The persistent BINA response is thus consistent with a model where BINA readily partitions into the plasma membrane lipid bilayer (and possibly other lipidic compartments).
The gramicidin-based fluorescence assay has been described previously ([Ingólfsson and Andersen, 2010]). In brief, large unilamellar vesicles (LUVs), loaded with intravesicular ANTS were prepared from DC22:1PC and gramicidin (weight ratio 1000:1, corresponding to a ~ 2000:1 molar ratio) using freeze-drying, extrusion and size-exclusion chromatography; the final lipid concentration was 4–5 mM; the suspension was stored in the dark at 12.5°C for a maximum of 7 days. […] Before use, the LUV-ANTS stock was diluted to 200–250 μM lipid with NaNO3 buffer (140 mM NaNO3, 10 mM HEPES, pH 7).
The NAMs and PAMs (dissolved in DMSO) or DMSO (as control) were added to a LUV-ANTS sample and equilibrated at 25°C in the dark for 10 min. before the mixture was loaded into a stopped-flow spectrofluorometer (Applied Photophysics SX.20, Leatherhead, UK) and mixed with either NaNO3 buffer or TlNO3 buffer; Tl^+ (thallous ion) is a gramicidin channel-permeant quencher of the ANTS fluorescence. Samples were excited at 352 nm and the fluorescence signal above 455 nm was recorded in the absence (four successive trials) or presence (nine successive trials) of the quencher. All the NAM and PAM derivatives fluoresce to varying degrees and addition of these drugs to LUVs in control experiments without gA or Tl^+ increased the fluorescence signal, and each signal was normalized to account for the compound's fluorescence. […] The quench rate (Rate), the rate of Tl^+ influx, was determined at 2 ms: Rate=β/τ0⋅(t/τ0)^β−1|2ms […]

SNAP-mGluR2-TMD = target: T1, SNAP-mGluR2-TMD (Rattus norvegicus, UniProt P31421); test: Inter-TMD FRET assay in living HEK 293T cells; format: cell-based; details: for EC50: SNAP-mGluR2-TMD labeled with donor and acceptor, normalized to saturating LY48, mean ± s.e.m., read-out: inter-TMD FRET increase EC50
T1 construct: mGluR2-TMD (rat) starts at Q558; expressed in transfected cells; host or cells: HEK 293T
Source text: We therefore sought to develop a FRET sensor that reports on activation-associated motions driven by allosteric drugs and hypothesized that an N-terminal fluorophore on the isolated TMD should report on any inter-TMD rearrangement while allowing the receptor to maintain G-protein coupling (Figure 3A). […] To test if LBD-independent inter-TMD rearrangement is a feature of other mGluRs, we asked if donor and acceptor conjugation to SNAP-mGluR5-TMD would allow for the detection a FRET response to a PAM.
Cells were cultured in DMEM with 5% FBS on poly-L-lysine-coated glass coverslips. DNA plasmids were transfected into cells using Lipofectamine 3000 (Thermo Fisher). […] For single-molecule pulldown (SiMPull) experiments, cells were transfected with 0.7 μg DNA of HA and SNAP-tagged receptor constructs, unless otherwise noted. For FRET experiments, cells were transfected with either SNAP-tagged constructs at 0.5–0.7 μg of DNA/well or SNAP and CLIP-tagged constructs at a ratio of 1:2 with 0.3 μg of SNAP DNA/well.
(§1) Fluorophores were diluted in EX solution, which was also used to wash coverslips following labeling and prior to mounting on the microscope. After labeling, cells were mounted on an inverted microscope (Olympus IX73) and imaged with a 60x objective. […] Clusters of cells were analyzed together using ImageJ and FRET was calculated as FRET=(IAcceptor)/(IDonor +IAcceptor) where I is fluorescence intensity. No corrections were made for bleed-through between channels or the contribution of donor-donor or acceptor-acceptor dimers as analysis was limited to relative FRET changes between drug treatments rather than absolute FRET values. […] FRET changes calculated for dose–response curves were normalized to the response to saturating […] applied within the same recording and dose–response curves were obtained from multiple cell clusters and averaged from at least three separate experiments. Dose–response curves were fit using Prism (Graphpad). All drugs were purchased from Tocris, prepared in EX solution, and delivered with a gravity-driven perfusion system. For kinetics measurements a pressurized perfusion system (Automate Scientific) was used to produce a flow rate of 0.5 mL/s. Kinetic analysis was performed in Microsoft Excel. The time between 10% and 90% FRET increase or decrease was determined manually. For photo-bleaching/donor-recovery experiments, images were taken in donor and acceptor channels at baseline and again followed by a 1 min exposure to 640 nm laser illumination at maximum intensity. All experiments were performed at room temperature. All data were produced from at least two separate transfections for each condition.

[2] = target: T2, SNAP-mGluR2 (full-length) (Rattus norvegicus, UniProt P31421); test: Inter-LBD FRET assay with full-length SNAP-mGluR2; format: cell-based; details: drug applied alone, saturating concentrations
T2 construct: HEK 293T cells expressing full-length mGluR2; expressed in transfected cells; host or cells: HEK 293T
Source text: We next sought to further probe the variation in PAM-induced inter-TMD FRET changes. […] We used an inter-LBD FRET assay to assess the relative strength of allosteric modulation by different mGluR2 PAMs. Agonists induce a decrease in FRET between fluorophore-conjugated N-terminal SNAP- and CLIP-tags (Figure 4E). […] We tested this effect for all PAMs by applying a saturating concentration of DCG-IV followed by co-application of a saturating concentration of each PAM, which produced further FRET decreases (Figure 4F,G).
as §1

[3] = target: T3, full-length mGluR2 (SNAP-mGluR2) (Rattus norvegicus, UniProt P31421); test: GIRK activation assay, whole cell patch clamp, HEK 293T cells expressing full-length mGluR2; format: cell-based; details: for EC50: read-out: GIRK activation EC50
T3 construct: HEK 293T cells expressing full-length mGluR2; expressed in transfected cells; host or cells: HEK 293T
Method: Cells were cultured in DMEM with 5% FBS on poly-L-lysine-coated glass coverslips. DNA plasmids were transfected into cells using Lipofectamine 3000 (Thermo Fisher). […] For single-molecule pulldown (SiMPull) experiments, cells were transfected with 0.7 μg DNA of HA and SNAP-tagged receptor constructs, unless otherwise noted.
Whole-cell patch clamp recordings from single isolated cells were performed 24–36 hr after transfection in a high-potassium extracellular solution containing (in mM): 120 KCl, 29 NaCl, 1 MgCl2, 2 CaCl2 and 10 HEPES, pH 7.4. Cells were voltage clamped to −60 mV using an Axopatch 200B amplifier (Axon Instruments) and membrane currents were recorded. Glass pipettes of resistance between 3 and 8 MΩ were filled with intracellular solution containing (in mM): 140 KCl, 10 HEPES, 3 Na2ATP, 0.2 Na2GTP, 5 EGTA and 3 MgCl2, pH 7.4. Data were acquired with a 2 kHz acquisition rate and filtered with the amplifier 4-pole Bessel filter at 1 kHz. Drugs were prepared in extracellular solution and applied using a gravity-driven perfusion system. Data were analyzed with Clampfit (Molecular Devices) and Prism (GraphPad). Data for all conditions came from at least two separate transfections.

SNAP-mGluR2 = target: T4, SNAP-mGluR2 (Rattus norvegicus, UniProt P31421); test: Single-molecule pulldown (SiMPull) photobleaching step counting, full-length SNAP-mGluR2; details: saturating (1 mM) glutamate
T4 construct: HEK 293T cells expressing full-length mGluR2; expressed in transfected cells; host or cells: HEK 293T
Method: To restrict our analysis to surface-targeted receptors, we expressed N-terminally SNAP-tagged receptor variants and labeled them with membrane-impermeable fluorophores.
To test this, we incubated SNAP-mGluR2-TMD expressing cells and lysates with PAMs or NAMs during the SiMPull experiment.
Briefly, to prevent non-specific sticking of proteins, flow chambers were prepared with mPEG-passivated glass slides and coverslips doped with ~1% biotinylated mPEG, as previously described. Prior to each experiment, chambers were incubated with 0.2 mg/mL NeutrAvidin (ThermoFisher) for 2 min followed by 10 nM of a biotinylated anti-HA antibody (abcam ab26228) for 20–30 min. After each conjugation step, the chambers were washed with T50 buffer (50 mM NaCl, 10 mM Tris, pH 7.5).
After labeling, cells were dissociated from coverslips by incubating with Ca^2+-free PBS for 20 min followed by gentle pipetting. […] Following 1 hr of lysis at 4°C, cells were centrifuged at 16,000 g for 20 min before the supernatant was collected and maintained on ice. The cell lysate was diluted in a 0.1% detergent dilution buffer to obtain sparse immobilization of labeled protein on the passivated slide. […]
Single molecules were imaged with a 100x objective on an inverted microscope (Olympus IX73) in total internal reflection fluorescence (TIRF) mode. […]

SNAP-mGluR5-TMD = SNAP-mGluR5-TMD (Homo sapiens, UniProt P41594); test: Inter-TMD FRET assay with SNAP-mGluR5-TMD; format: cell-based, H. sapiens; details: mGluR5 PAM applied alone
SNAP-mGluR5-TMD, sequence (P41594 570-876 limits assumed): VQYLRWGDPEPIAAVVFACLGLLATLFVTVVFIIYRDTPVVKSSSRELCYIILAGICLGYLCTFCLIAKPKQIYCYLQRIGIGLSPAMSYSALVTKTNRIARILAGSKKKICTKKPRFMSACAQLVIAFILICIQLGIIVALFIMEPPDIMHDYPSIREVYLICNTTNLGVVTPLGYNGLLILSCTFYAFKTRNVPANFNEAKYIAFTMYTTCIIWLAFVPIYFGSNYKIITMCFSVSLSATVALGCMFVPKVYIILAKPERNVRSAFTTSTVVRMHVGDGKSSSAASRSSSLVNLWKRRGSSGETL

T1 sequence (P31421 558-872 limits assumed): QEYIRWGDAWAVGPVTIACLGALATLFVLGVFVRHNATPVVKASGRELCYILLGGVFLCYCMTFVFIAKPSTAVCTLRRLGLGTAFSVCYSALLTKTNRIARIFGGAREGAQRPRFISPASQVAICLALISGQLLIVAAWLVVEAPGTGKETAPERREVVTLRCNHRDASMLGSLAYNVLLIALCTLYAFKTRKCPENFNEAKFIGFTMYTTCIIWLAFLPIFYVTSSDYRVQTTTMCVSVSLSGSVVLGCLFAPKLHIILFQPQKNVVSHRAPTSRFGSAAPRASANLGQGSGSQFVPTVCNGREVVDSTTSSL
T3 sequence (P31421 19-872): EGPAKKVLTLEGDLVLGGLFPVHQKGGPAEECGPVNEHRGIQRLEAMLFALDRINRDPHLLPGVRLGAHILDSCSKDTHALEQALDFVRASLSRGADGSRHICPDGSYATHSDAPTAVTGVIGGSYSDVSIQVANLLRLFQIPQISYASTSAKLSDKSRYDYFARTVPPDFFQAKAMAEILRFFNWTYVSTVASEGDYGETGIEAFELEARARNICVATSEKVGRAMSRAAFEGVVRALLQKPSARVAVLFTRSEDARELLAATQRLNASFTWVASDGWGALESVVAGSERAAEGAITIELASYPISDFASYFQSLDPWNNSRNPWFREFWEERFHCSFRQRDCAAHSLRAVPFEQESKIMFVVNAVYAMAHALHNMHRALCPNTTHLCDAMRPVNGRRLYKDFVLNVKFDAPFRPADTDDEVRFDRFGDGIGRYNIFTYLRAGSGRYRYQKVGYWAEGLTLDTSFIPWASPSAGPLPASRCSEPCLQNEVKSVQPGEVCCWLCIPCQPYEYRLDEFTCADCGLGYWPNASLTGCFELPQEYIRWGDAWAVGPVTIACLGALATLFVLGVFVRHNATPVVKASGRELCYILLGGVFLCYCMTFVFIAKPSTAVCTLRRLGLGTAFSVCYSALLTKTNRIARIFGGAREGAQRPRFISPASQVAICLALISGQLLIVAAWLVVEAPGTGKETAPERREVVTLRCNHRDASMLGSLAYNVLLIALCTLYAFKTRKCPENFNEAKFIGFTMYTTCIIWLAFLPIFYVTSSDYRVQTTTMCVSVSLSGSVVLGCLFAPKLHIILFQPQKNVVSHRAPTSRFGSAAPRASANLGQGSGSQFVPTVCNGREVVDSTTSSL
T2 sequence (P31421 19-872): as above
T4 sequence (P31421 19-872): as above

Row | SMILES | EC50 (SNAP-mGluR2-TMD) [µM] | inter-TMD FRET response onset (SNAP-mGluR2-TMD; saturating concentrations) [s] | inter-TMD FRET response reversal (SNAP-mGluR2-TMD; saturating concentrations) [min] | direct effect on inter-LBD FRET (no orthosteric agonist for modulators) [2] | EC50 [3] [µM] | also measured
1 | Cc1c(OCc2cccc(-c3ccc(C(=O)O)cc3)c2)cc2c(c1C)C(=O)C(C1CCCC1)C2 (stereo not drawn) [BINA] |  |  |  |  |  | changes in gramicidin channel function (membrane properties) [1]: greatest changes in gramicidin channel function
2 | CCS(=O)(=O)N(Cc1cccnc1)c1cccc(-c2ccc(C#N)cc2)c1 [CBiPES] | 3.5 ± 0.2 | 10 to 40 | < 2 | no FRET response | 0.46 ± 0.2 | inter-TMD FRET kinetics relative to LY48 (SNAP-mGluR2-TMD): substantially faster ON and OFF kinetics
3 | N[C@@H](CCC(=O)O)C(=O)O [Glutamate] |  |  |  | large FRET decrease |  | two-step bleaching events of SNAP-mGluR2 with glutamate (SNAP-mGluR2): ~ 60%; GIRK current time 10% to 90% ([3]; saturating: 10 µM LY48, 1 mM Glutamate): 1.9 ± 0.5 s
4 | Cc1c(C(N)=O)nc2n1C[C@@H](COc1ccc(C(C)(C)C)cc1)O2 [TASP] | 0.9 ± 0.1 | 10 to 40 | < 2 | no FRET response | 0.38 ± 0.11 | maximum inter-TMD FRET increase relative to LY48 (SNAP-mGluR2-TMD; saturating concentrations, compared to saturating LY48): ~ 1.3 times that of LY48
5 | O=C(NC1CCC1)c1ccc(C#Cc2cccc(F)c2)nc1 [VU0360172] |  |  |  |  |  | inter-TMD FRET response of SNAP-mGluR5-TMD (SNAP-mGluR5-TMD): reversible FRET response
6 | O=C(O)c1cc(O)c2cccc(O)c2n1 [XA, Xanthurenic acid] |  |  |  |  |  | inter-TMD FRET response to drug alone (SNAP-mGluR2-TMD; drug applied alone, XA up to 50 µM): neither inter-TMD FRET changes
